Data: the NIST ThermoML archive (doi:10.1016/j.jct.2006.08.011)

How the values were obtained:
[1] = refractive index (Na D-line) (dimensionless); settings: 298.15 K; 101.33 kPa; Liquid; Standard Abbe refractometry
[2] = 298.15 K; 101.33 kPa; Liquid
[3] = excess molar enthalpy (molar enthalpy of mixing); xn = mol fraction of the nth substance listed; settings: 298.15 K, 101 kPa, Liquid
[4] = refractive index (Na D-line) (dimensionless); xn = mol fraction of the nth substance listed; settings: 298.15 K, 101.3 kPa, Liquid, Standard Abbe refractometry
[5] = xn = mol fraction of the nth substance listed; settings: 298.15 K, Liquid

CCCCCC [hexane]
Settings | mass density [kg/m3] | refractive index
[1] | – | 1.3723
[2] | 654.68 | –

CCCOC(=O)CC [propyl propanoate]
Settings | mass density [kg/m3] | refractive index
[1] | – | 1.3906
[2] | 875.48 | –

Cc1ccccc1 [toluene]
Settings | mass density [kg/m3] | refractive index
[1] | – | 1.4941
[2] | 862.11 | –

CCCCCC [hexane] + Cc1ccccc1
Settings | excess molar enthalpy [kcal/mol] | refractive index
[3], x1 = 0.0525 | 0.0294 | –
[3], x1 = 0.0957 | 0.0507 | –
[3], x1 = 0.1586 | 0.0756 | –
[3], x1 = 0.2119 | 0.0935 | –
[3], x1 = 0.2672 | 0.109 | –
[3], x1 = 0.3135 | 0.118 | –
[3], x1 = 0.3766 | 0.126 | –
[3], x1 = 0.4264 | 0.13 | –
[3], x1 = 0.4723 | 0.131 | –
[3], x1 = 0.5414 | 0.128 | –
[3], x1 = 0.6641 | 0.115 | –
[3], x1 = 0.6927 | 0.109 | –
[3], x1 = 0.7484 | 0.0939 | –
[3], x1 = 0.8045 | 0.0779 | –
[3], x1 = 0.8657 | 0.0576 | –
[3], x1 = 0.9023 | 0.0438 | –
[4], x1 = 0.0543 | – | 1.486
[4], x1 = 0.0958 | – | 1.4801
[4], x1 = 0.1667 | – | 1.4701
[4], x1 = 0.2129 | – | 1.4637
[4], x1 = 0.2818 | – | 1.4541
[4], x1 = 0.3261 | – | 1.4482
[4], x1 = 0.3762 | – | 1.4417
[4], x1 = 0.4262 | – | 1.4353
[4], x1 = 0.4769 | – | 1.429
[4], x1 = 0.5136 | – | 1.4246
[4], x1 = 0.5742 | – | 1.4174
[4], x1 = 0.6327 | – | 1.4107
[4], x1 = 0.6862 | – | 1.4047
[4], x1 = 0.7402 | – | 1.3987
[4], x1 = 0.7958 | – | 1.3927
[4], x1 = 0.8548 | – | 1.3866
[4], x1 = 0.9106 | – | 1.381
[4], x1 = 0.9409 | – | 1.378

[5], 101 kPa
Settings | mass density [kg/m3]
x1 = 0.0524 | 848.99
x1 = 0.0926 | 839.12
x1 = 0.1636 | 822.1
x1 = 0.2011 | 813.3
x1 = 0.2475 | 802.64
x1 = 0.3184 | 786.7
x1 = 0.4088 | 767.06
x1 = 0.4739 | 753.36
x1 = 0.5096 | 746
x1 = 0.5734 | 733.08
x1 = 0.6086 | 726.13
x1 = 0.6754 | 713.16
x1 = 0.7338 | 702.09
x1 = 0.7827 | 693.01
x1 = 0.8426 | 682.13
x1 = 0.9055 | 670.97
x1 = 0.9323 | 666.29

CCCOC(=O)CC [propyl propanoate] + Cc1ccccc1
Settings | excess molar enthalpy [kcal/mol] | refractive index
[3], x1 = 0.0547 | -0.0102 | –
[3], x1 = 0.1357 | -0.0223 | –
[3], x1 = 0.1718 | -0.0263 | –
[3], x1 = 0.2389 | -0.0336 | –
[3], x1 = 0.2823 | -0.0365 | –
[3], x1 = 0.3263 | -0.0399 | –
[3], x1 = 0.3957 | -0.0421 | –
[3], x1 = 0.4277 | -0.0421 | –
[3], x1 = 0.5486 | -0.0378 | –
[3], x1 = 0.5841 | -0.0361 | –
[3], x1 = 0.6522 | -0.0328 | –
[3], x1 = 0.709 | -0.0293 | –
[3], x1 = 0.7394 | -0.0271 | –
[3], x1 = 0.8031 | -0.0228 | –
[3], x1 = 0.8568 | -0.0183 | –
[3], x1 = 0.892 | -0.0131 | –
[3], x1 = 0.9577 | -0.00583 | –
[4], x1 = 0.0625 | – | 1.4858
[4], x1 = 0.1072 | – | 1.4803
[4], x1 = 0.1826 | – | 1.4712
[4], x1 = 0.2232 | – | 1.4665
[4], x1 = 0.2747 | – | 1.4605
[4], x1 = 0.3426 | – | 1.4529
[4], x1 = 0.4514 | – | 1.4411
[4], x1 = 0.4907 | – | 1.437
[4], x1 = 0.5441 | – | 1.4316
[4], x1 = 0.5833 | – | 1.4277
[4], x1 = 0.6451 | – | 1.4218
[4], x1 = 0.7066 | – | 1.416
[4], x1 = 0.7346 | – | 1.4135
[4], x1 = 0.7898 | – | 1.4085
[4], x1 = 0.8508 | – | 1.4031
[4], x1 = 0.9037 | – | 1.3986
[4], x1 = 0.956 | – | 1.3942

[5], 101.3 kPa
Settings | mass density [kg/m3]
x1 = 0.0625 | 863.5
x1 = 0.1072 | 864.46
x1 = 0.1826 | 865.94
x1 = 0.2232 | 866.69
x1 = 0.2747 | 867.57
x1 = 0.3426 | 868.66
x1 = 0.4514 | 870.21
x1 = 0.4907 | 870.73
x1 = 0.5441 | 871.41
x1 = 0.5833 | 871.86
x1 = 0.6451 | 872.53
x1 = 0.7066 | 873.14
x1 = 0.7346 | 873.41
x1 = 0.7898 | 873.9
x1 = 0.8508 | 874.42
x1 = 0.9037 | 874.81
x1 = 0.956 | 875.2
